In patent US12589143B2, “Human anti-PD-L1 peptide vaccines and methods of their use” (priority 2019, dated 2026):
Values joined by “and” are separate entries in the source; they are usually repeats but may differ in a detail not shown here. Equal values may be shown once. Where no end group is shown, it is not given here.

System: MVF-PD-L1 peptide immunogen
Assay: Immunogenicity in Balb/c mice, experiment 1 (CT26 WT): ELISA of sera vs each MVF-PD-L1 peptide immunogen
Format: in vivo
Settings: for Immunogenicity (titers) 1′ Conc. 1:: Balb/c mice
Procedure: Immunogenicity of MVF-PD-L1 B-cell epitopes. New Zealand White rabbits were immunized with 1 mg of each MVF-peptide immunogens dissolved in dd H2O emulsified (1:1) in Montanide ISA 720 vehicle (Seppic) with 333 μg of N-acetylglucosamine-3yl-acetyl-1-alanyl-d-isoglutamine (nor-MDP). Rabbits were boosted with the same doses at 3-week's intervals. Blood was collected via the central auricular artery in rabbits. Blood was collected weekly (1Y+3, 2Y+1, 2Y+2,2Y+3, 3Y+1, 3Y+2 and sera tested for antibody titers by ELISA using the immunogens MVF-PD-L1 peptides. Sera (terminal) from rabbit (3Y+3) immunized with MVF-PD-1 peptide immunogens were tested individually versus the immunogen by ELISA. 200 ng/well peptide were used in duplicates to coat the ELISA plates. Titers are defined as the highest dilution of sera with an absorbance value of 0.2 after subtracting the blank.
FIGS. 5A, 5B, 5C, and 5D show the experimental scheme to test the immunization with PD-L1 in Balb/c mice. […] Balb/c mice 6-8 weeks old, were immunized with MVF-peptide immunogens emulsified in ISA 720 with nor-MDP three times and three weeks apart. Mice were immunized with MVF-PD-L1 vaccine constructs [PD-L1(36-53), PD-L1(50-67), PD-L1(95-112), PD-L1(130-147)] prior to tumor challenge. Blood was collected weekly and sera tested for antibody titers by ELISA. Two weeks after the third immunization (3Y), the mice were engrafted with CT26 WT tumor cells 10^5 per mouse Control mice were treated twice weekly with PBS as negative control and twice weekly with anti-mPD-L1 mAb (10F.9G2) as positive control starting 2 days after tumor challenge. Tumor growths were observed twice weekly and measured by calipers.
Immunogenicity of MVF-PD-L1 peptides in BALB/c mice immunized with various peptide constructs. Sera collected weekly were tittered against each individual MVF-PD-L1 peptide immunogen. The Pink bar refers to titers versus PD-L1 130 and the red bar refers to titers versus PD-1 (92-110).
In order to verify the efficacy of the PD-L1 epitope vaccines in vivo in the CT26 carcinoma cell line, Balb/c mice (10 mice/group) were immunized with 100 μg each of MVF-PD-L1 (36-53), MVF-PD-L1 (50-67), MVF-PD-L1 (95-112) and MVF-PD-L1 (130-147) emulsified with nor-MDP and Montanide 720 (1:1 ratio) SCHEME 1A (FIG. 5A). As detailed in SCHEME 1A-D (FIGS. 5A, 5B, 5C, and 5D), mice were immunized 3 times at 3 weeks intervals. […] All PD-L1 epitopes elicited high titers of PD-L1 anti-peptide antibodies by ELISA. […] We also investigated the combination of PD-1(92-110) with PD-L1-130-147.
For each peptide, vaccine antibodies were raised in New Zealand white rabbits, purchased from Charles River Laboratories (Wilmington, MA, USA). Rabbits were immunized with 1 mg of MVF chimeric peptide emulsified in Montanide ISA 720 (Seppic, Paris, France) and boosted 3 times at three week intervals. For mouse experiments, mice, 6-8 weeks old, were immunized with 0.1 mg of peptide emulsified in ISA720 (1:1 ratio). Mice were boosted with the respective doses at 3-week intervals. Blood was then collected and sera were tested for antibody titers. Sera were collected weekly and peptide vaccine antibodies were purified by affinity chromatography using a protein A/G column and the concentration was measured using Spectrophometer. All experiments were performed in accordance with the U.S. Public Health Service Policy on Humane Care and Use of Laboratory animals and approved by the Ohio State University Institutional Animals Care and Use Committee, detailed in the accepted protocol.
6-8 weeks old BALB/c mice (Charles River, Wilmington, MA) were used as standard animal models. Mouse CT26 colon carcinoma cell line was purchased from American Type Culture Collection Cells and were regularly cultured in RPMI1640 medium containing 10% FBS. CT26/HER2 cells were kindly provided by M. Penichet. Vaccines were dissolved in sterile water and emulsified in Montanide ISA 720 (1:1). […]

With “KLLSLIKGVIVHRLEGVEGPSLVTSEHELTCQAEGYPKAE (KLLSLIKGVIVHRLEGVEGPSLVTSEHELTCQAEGYPKAE-NH2) [PD-L1(130)]” the “Immunogenicity (titers) 1′ Conc. 1:” value (bleed 1Y + 3) was 12800, the “Immunogenicity (titers) 1′ Conc. 1:” value (bleed 2Y + 1) was 12800 and the “Immunogenicity (titers) 1′ Conc. 1:” value (bleed 2Y + 2) was >12800. For the same sequence, the “Immunogenicity (titers) 1′ Conc. 1:” value (bleed 2Y + 3) was 128000, the “Immunogenicity (titers) 1′ Conc. 1:” value (bleed 3Y + 1) was 128000 and the “Immunogenicity (titers) 1′ Conc. 1:” value (bleed 3Y + 2) was 64000. The “Immunogenicity (titers) 1′ Conc. 1:” value (bleed 3Y + 3) was 64000, the “ELISA absorbance of sera” value (bleed 1Y + 3 (1to100), dilution 100, primary antibody dilution 1:100) was 1.571 and 1.562 and the “ELISA absorbance of sera” value (bleed 1Y + 3 (1to100), dilution 200, primary antibody dilution 1:200) was 1.513 and 1.428. The “ELISA absorbance of sera” value (bleed 1Y + 3 (1to100), dilution 400, primary antibody dilution 1:400) was 1.359 and 1.348, the “ELISA absorbance of sera” value (bleed 1Y + 3 (1to100), dilution 800, primary antibody dilution 1:800) was 1.151 and 1.105 and the “ELISA absorbance of sera” value (bleed 1Y + 3 (1to100), dilution 1,600) was 0.888 and 0.871. For the same sequence, the “ELISA absorbance of sera” value (bleed 1Y + 3 (1to100), dilution 3,200) was 0.580 and 0.528, the “ELISA absorbance of sera” value (bleed 1Y + 3 (1to100), dilution 6,400) was 0.348 and 0.314 and the “ELISA absorbance of sera” value (bleed 1Y + 3 (1to100), dilution 12,800) was 0.204 and 0.196. For the same sequence, the “ELISA absorbance of sera” value (bleed 2Y + 1 (1to100), dilution 100, primary antibody dilution 1:100) was 1.492 and 1.522, the “ELISA absorbance of sera” value (bleed 2Y + 1 (1to100), dilution 200, primary antibody dilution 1:200) was 1.511 and 1.473 and the “ELISA absorbance of sera” value (bleed 2Y + 1 (1to100), dilution 400, primary antibody dilution 1:400) was 1.450 and 1.355. For the same sequence, the “ELISA absorbance of sera” value (bleed 2Y + 1 (1to100), dilution 800, primary antibody dilution 1:800) was 1.299 and 1.243, the “ELISA absorbance of sera” value (bleed 2Y + 1 (1to100), dilution 1,600) was 1.049 and 0.898 and the “ELISA absorbance of sera” value (bleed 2Y + 1 (1to100), dilution 3,200) was 0.757 and 0.652. For the same sequence, the “ELISA absorbance of sera” value (bleed 2Y + 1 (1to100), dilution 6,400) was 0.461 and 0.403, the “ELISA absorbance of sera” value (bleed 2Y + 1 (1to100), dilution 12,800) was 0.286 and 0.239 and the “ELISA absorbance of sera” value (bleed 2Y + 2 (1to100), dilution 100) was 1.483 and 1.544. The “ELISA absorbance of sera” value (bleed 2Y + 2 (1to100), dilution 200) was 1.510 and 1.484, the “ELISA absorbance of sera” value (bleed 2Y + 2 (1to100), dilution 400) was 1.508 and 1.469 and the “ELISA absorbance of sera” value (bleed 2Y + 2 (1to100), dilution 800) was 1.407 and 1.322. The “ELISA absorbance of sera” value (bleed 2Y + 2 (1to100), dilution 1,600) was 1.252 and 1.192, the “ELISA absorbance of sera” value (bleed 2Y + 2 (1to100), dilution 3,200) was 0.977 and 0.852 and the “ELISA absorbance of sera” value (bleed 2Y + 2 (1to100), dilution 6,400) was 0.704 and 0.577. For the same sequence, the “ELISA absorbance of sera” value (bleed 2Y + 3 (1to1k), dilution 100) was 1.227 and 1.226, the “ELISA absorbance of sera” value (bleed 2Y + 3 (1to1k), dilution 200) was 1.175 and 1.183 and the “ELISA absorbance of sera” value (bleed 2Y + 3 (1to1k), dilution 400) was 1.164 and 1.091. For the same sequence, the “ELISA absorbance of sera” value (bleed 2Y + 3 (1to1k), dilution 800) was 1.040 and 0.957, the “ELISA absorbance of sera” value (bleed 2Y + 3 (1to1k), dilution 1,600) was 0.846 and 0.797 and the “ELISA absorbance of sera” value (bleed 2Y + 3 (1to1k), dilution 3,200) was 0.665 and 0.655. The “ELISA absorbance of sera” value (bleed 2Y + 3 (1to1k), dilution 6,400) was 0.432 and 0.397, the “ELISA absorbance of sera” value (bleed 3Y + 1 (1to1k), dilution 100) was 1.387 and 1.385 and the “ELISA absorbance of sera” value (bleed 3Y + 1 (1to1k), dilution 200) was 1.327 and 1.336. The “ELISA absorbance of sera” value (bleed 3Y + 1 (1to1k), dilution 400) was 1.315 and 1.233, the “ELISA absorbance of sera” value (bleed 3Y + 1 (1to1k), dilution 800) was 1.176 and 1.081 and the “ELISA absorbance of sera” value (bleed 3Y + 1 (1to1k), dilution 1,600) was 0.955 and 0.901. For the same sequence, the “ELISA absorbance of sera” value (bleed 3Y + 1 (1to1k), dilution 3,200) was 0.752 and 0.740, the “ELISA absorbance of sera” value (bleed 3Y + 1 (1to1k), dilution 6,400) was 0.488 and 0.449 and the “ELISA absorbance of sera” value (bleed 3Y + 2 (1to1k), dilution 100) was 1.562 and 1.601. For the same sequence, the “ELISA absorbance of sera” value (bleed 3Y + 2 (1to1k), dilution 200) was 1.394 and 1.374, the “ELISA absorbance of sera” value (bleed 3Y + 2 (1to1k), dilution 400) was 1.156 and 1.199 and the “ELISA absorbance of sera” value (bleed 3Y + 2 (1to1k), dilution 800) was 0.867 and 0.876. For the same sequence, the “ELISA absorbance of sera” value (bleed 3Y + 2 (1to1k), dilution 1,600) was 0.656 and 0.658, the “ELISA absorbance of sera” value (bleed 3Y + 2 (1to1k), dilution 3,200) was 0.439 and 0.431 and the “ELISA absorbance of sera” value (bleed 3Y + 2 (1to1k), dilution 6,400) was 0.286. For the same sequence, the “ELISA absorbance of sera” value (bleed 3Y + 3 (1to1k), dilution 100) was 1.823 and 1.827, the “ELISA absorbance of sera” value (bleed 3Y + 3 (1to1k), dilution 200) was 1.614 and 1.704 and the “ELISA absorbance of sera” value (bleed 3Y + 3 (1to1k), dilution 400) was 1.411 and 1.516. The “ELISA absorbance of sera” value (bleed 3Y + 3 (1to1k), dilution 800) was 1.110 and 1.208, the “ELISA absorbance of sera” value (bleed 3Y + 3 (1to1k), dilution 1,600) was 0.752 and 0.880 and the “ELISA absorbance of sera” value (bleed 3Y + 3 (1to1k), dilution 3,200) was 0.445 and 0.537. The “ELISA absorbance of sera” value (bleed 3Y + 3 (1to1k), dilution 6,400) was 0.243.
